Measured values published in ChEMBL document CHEMBL3525936 (Drug Metab Dispos, 2012).

How the values were obtained:
Liver microsome [1] = experiment: Drug level in rat liver microsomes assessed as compound formation treated with 2 uM [14C]brivanib alaninate after 60 mins by LC/MS method in presence of 1 mM NADPH; type: ADME; conditions: 1 h
[2] = Drug level in monkey liver microsomes assessed as compound formation treated with 2 uM [14C]brivanib alaninate after 60 mins by LC/MS method in presence of 1 mM NADPH; type: ADME, Macaca mulatta; conditions: rhesus monkey, 1 h
Liver microsome [3] = experiment: Drug level in human liver microsomes assessed as compound formation treated with 2 uM [14C]brivanib alaninate after 60 mins by LC/MS method in presence of 1 mM NADPH; type: ADME; conditions: 1 h
Liver microsome [4] = experiment: Drug metabolism in rat liver microsomes assessed as 1-(4-(4-fluoro-2-methyl-1H-indol-5-yloxy)-5-methylpyrrolo[1,2-f][1,2,4]triazin-6-yloxy)propan-2-one formation at 2 uM after 60 mins by LC/MS method in presence of 1 mM NADPH; type: ADME
[5] = Drug metabolism in monkey liver microsomes assessed as 1-(4-(4-fluoro-2-methyl-1H-indol-5-yloxy)-5-methylpyrrolo[1,2-f][1,2,4]triazin-6-yloxy)propan-2-one formation at 2 uM after 60 mins by LC/MS method in presence of 1 mM NADPH; type: ADME, Macaca mulatta; conditions: rhesus monkey
Liver microsome [6] = experiment: Drug metabolism in human liver microsomes assessed as 1-(4-(4-fluoro-2-methyl-1H-indol-5-yloxy)-5-methylpyrrolo[1,2-f][1,2,4]triazin-6-yloxy)propan-2-one formation at 2 uM after 60 mins by LC/MS method in presence of 1 mM NADPH; type: ADME
Liver microsome [7] = experiment: Drug metabolism in rat liver microsomes assessed as 1-(4-(4-fluoro-2-methyl-1H-indol-5-yloxy)-5-methylpyrrolo[1,2-f][1,2,4]triazin-6-yloxy)propan-2-one formation at 2 uM after 60 mins by LC/MS method in absence of NADPH; type: ADME
[8] = Drug metabolism in monkey liver microsomes assessed as 1-(4-(4-fluoro-2-methyl-1H-indol-5-yloxy)-5-methylpyrrolo[1,2-f][1,2,4]triazin-6-yloxy)propan-2-one formation at 2 uM after 60 mins by LC/MS method in absence of NADPH; type: ADME, Macaca mulatta; conditions: rhesus monkey
Liver microsome [9] = experiment: Drug metabolism in human liver microsomes assessed as 1-(4-(4-fluoro-2-methyl-1H-indol-5-yloxy)-5-methylpyrrolo[1,2-f][1,2,4]triazin-6-yloxy)propan-2-one formation at 2 uM after 60 mins by LC/MS method in absence of NADPH; type: ADME
[10] = Drug metabolism in monkey liver microsomes assessed as (R)-1-(4-(4-fluoro-2-methyl-1H-indol-5-yloxy)-5-methylpyrrolo[1,2-f][1,2,4]triazin-6-yloxy)propan-2-ol formation at 10 uM after 60 mins by LC/MS analysis in absence of NADPH; type: ADME, Macaca mulatta; conditions: rhesus monkey
Liver microsome [11] = experiment: Drug metabolism in human liver microsomes assessed as (R)-1-(4-(4-fluoro-2-methyl-1H-indol-5-yloxy)-5-methylpyrrolo[1,2-f][1,2,4]triazin-6-yloxy)propan-2-ol formation at 10 uM after 60 mins by LC/MS analysis in absence of NADPH; type: ADME
Liver microsome [12] = experiment: Drug metabolism in rat liver microsomes assessed as (R)-1-(4-(4-fluoro-2-methyl-1H-indol-5-yloxy)-5-methylpyrrolo[1,2-f][1,2,4]triazin-6-yloxy)propan-2-ol formation at 10 uM after 60 mins by LC/MS analysis in absence of NADPH; type: ADME
Liver cytosol [13] = experiment: Drug metabolism in human liver cytosol assessed as sulfate metabolite formation by Michaelis-Menten equation […]; type: ADME
HUVEC [14] = experiment: Inhibition of VEGF-stimulated HUVEC cell proliferation assessed as 5-bromo-2-deoxyuridine incorporation; type: functional, cell-based; conditions: Homo sapiens
HUVEC [15] = experiment: Inhibition of FGF-stimulated HUVEC cell proliferation assessed as 5-bromo-2-deoxyuridine incorporation; type: functional, cell-based; conditions: Homo sapiens
HUVEC [16] = experiment: Inhibition of VEGF/FGF-stimulated HUVEC cell proliferation assessed as 5-bromo-2-deoxyuridine incorporation; type: functional, cell-based; conditions: Homo sapiens
Liver cytosol [17] = experiment: Drug metabolism in rat liver cytosol assessed as sulfate metabolite formation by Michaelis-Menten equation […]; type: ADME
[18] = Drug metabolism in monkey liver cytosol assessed as sulfate metabolite formation by Michaelis-Menten equation […]; type: ADME, Macaca mulatta; conditions: rhesus monkey
[19] = Cmax in Sprague-Dawley rat plasma at 60 mg/kg, po administered as single dose via gavage by LC/MS analysis; type: ADME, organism-based; parameters: dose 60 mg/kg, route oral
[20] = Tmax in Sprague-Dawley rat plasma at 60 mg/kg, po administered as single dose via gavage by LC/MS analysis; type: ADME, organism-based; parameters: dose 60 mg/kg, route oral
[21] = AUC (0 to t) in Sprague-Dawley rat plasma at 60 mg/kg, po administered as single dose via gavage by LC/MS analysis; type: ADME, organism-based; parameters: dose 60 mg/kg, route oral
[22] = Cmax in cynomolgus monkey plasma at 10 mg/kg, po administered as single dose via gavage by LC/MS analysis; type: ADME, organism-based, Macaca fascicularis; parameters: dose 10 mg/kg, route oral
[23] = Tmax in cynomolgus monkey plasma at 10 mg/kg, po administered as single dose via gavage by LC/MS analysis; type: ADME, organism-based, Macaca fascicularis; parameters: dose 10 mg/kg, route oral
[24] = AUC (0 to t) in cynomolgus monkey plasma at 10 mg/kg, po administered as single dose via gavage by LC/MS analysis; type: ADME, organism-based, Macaca fascicularis; parameters: dose 10 mg/kg, route oral
[25] = Cmax in healthy human plasma at 400 mg, po administered as single dose via gavage by LC/MS analysis; type: ADME, organism-based; parameters: dose 400 mg, route oral
[26] = Tmax in healthy human plasma at 400 mg, po administered as single dose via gavage by LC/MS analysis; type: ADME, organism-based
[27] = AUC (0 to t) in healthy human plasma at 400 mg, po administered as single dose via gavage by LC/MS analysis; type: ADME, organism-based

Structure (SMILES)	Drug metabolism (Liver microsome [1])	Drug metabolism [2]	Drug metabolism (Liver microsome [3])	Km (Liver cytosol [13])	Km (Liver cytosol [17])	Km [18]	IC50 (HUVEC [14])	IC50 (HUVEC [15])	IC50 (HUVEC [16])	also measured
Cc1cc2c(F)c(Oc3n[14cH]nn4cc(OC[C@@H](C)OC(=O)[C@H](C)N)c(C)c34)ccc2[nH]1	–	–	–	–	–	–	–	–	–	Drug metabolism (Liver microsome [4]): metabolite_detected; Drug metabolism [5]: metabolite_detected; Drug metabolism (Liver microsome [6]): metabolite_detected; Drug metabolism (Liver microsome [7]): metabolite_not_detected; Drug metabolism [8]: metabolite_not_detected; Drug metabolism (Liver microsome [9]): metabolite_not_detected
Cc1c(OC[C@@H](C)O)cn2ncnc(Oc3ccc4[nH]c(C(=O)O)cc4c3F)c12	metabolite_detected	metabolite_detected	metabolite_detected	–	–	–	–	–	–	–
Cc1cc2c(F)c(Oc3ncnn4cc(OC[C@H](C)O)c(C)c34)ccc2[nH]1	–	–	–	0.7 µM	0.7 µM	0.7 µM	0.687 µM	1.01 µM	0.807 µM	Drug metabolism [10]: metabolite_not_detected; Drug metabolism (Liver microsome [11]): metabolite_not_detected; Drug metabolism (Liver microsome [12]): metabolite_not_detected

Now from value to compound, other results behind:

Drug metabolism (Liver microsome [1])	Drug metabolism [2]	Drug metabolism (Liver microsome [3])	Km (Liver cytosol [13])	Km (Liver cytosol [17])	Km [18]	Structure (SMILES)	IC50 (HUVEC [14])	IC50 (HUVEC [15])	IC50 (HUVEC [16])	also measured
metabolite_detected	metabolite_detected	metabolite_detected	–	–	–	CC(=O)COc1cn2ncnc(Oc3ccc4[nH]c(C)cc4c3F)c2c1C	–	–	–	–
metabolite_detected	metabolite_detected	metabolite_detected	–	–	–	Cc1c(OC[C@@H](C)O)cn2ncnc(Oc3ccc4[nH]c(CO)cc4c3F)c12	–	–	–	–
–	–	–	0.7 µM	0.7 µM	0.7 µM	Cc1cc2c(F)c(Oc3ncnn4cc(OC[C@@H](C)O)c(C)c34)ccc2[nH]1 [BRIVANIB]	0.618 µM	0.695 µM	0.841 µM	Cmax [19]: 3.5 µg/mL; Tmax [20]: 1 h; AUC(0-t) [21]: 7.6 µg·h/mL; Cmax [22]: 1.4 µg/mL; Tmax [23]: 1 h; AUC(0-t) [24]: 6.8 µg·h/mL; Cmax [25]: 3.5 µg/mL; Tmax [26]: 2 h; AUC(0-t) [27]: 21.8 µg·h/mL
